Test results published in patent publication US11040028B2, “Penicinotam derivative, preparation method and use thereof” (OCEAN UNIVERSITY OF CHINA, priority 2017, dated 2021).

Tests used:
Type in all cases: cell-based
[1] = test system: human hepatic stellate cells LX-2; assay: Anti-fibrosis activity test: inhibition of proliferation of human hepatic stellate cells LX-2 (CCK-8); conditions: human hepatic stellate cells LX-2, CCK-8, 48 hours
Protocol: (§1) BHK-21 cells in exponential growth phase were selected. After the fusion growth reached 85-95%, normal passage method was utilized to digest and collect the cells, followed by cell counting and adjusting the cell density to 2×10^4 cells/mL. The cells were seeded into 96-well plates, 100 μL/well, and were incubated under the condition of 5% CO2 at 37° C.
(§2) The supernatant was removed after the cells had adhered to the wall for 24 hours. The culture solution containing the prepared compounds at different concentrations were added to the wells, 100 μL/well, each concentration in triplicate. The cells were subcultured for 48 hours after administration. Commercially available pirfenidone was employed as the positive control.
(§3) 10 μL of CCK-8 solution ( 1/10 of the volume of the culture solution) was added to each well 48 hours after the administration, and incubated for 2 hours. The absorbance (A) of each well was determined by a microplate reader at 450 nm wavelength. The inhibition rate against cell proliferation for each compound was calculated based on A, wherein inhibition rate against cell proliferation (inhibition ratio, IR)=(1−value of experimental group (Ai)/value of blank control group (Ao))×100% and the IC50 value of each compound was calculated by the data processing software.
(§4) Using the same protocol for the cell experiments, the inhibitory activity of the test compounds against the proliferation of human lung fibroblasts HFL1, human hepatic stellate cells LX-2, human fibrosarcoma cells HT-1080, human dermal fibroblasts CCC-ESF-1, human embryonic lung fibroblast IMR-90, cardiac fibroblast RAT-iCell-C002 was assayed.

BHK-21 cells = assay: Anti-fibrosis activity test: inhibition of BHK-21 cell proliferation (CCK-8)
Protocol: as §1, §2, §3

[2] = test system: human dermal fibroblasts CCC-ESF-1; assay: Anti-fibrosis activity test: inhibition of proliferation of human dermal fibroblasts CCC-ESF-1 (CCK-8); conditions: human dermal fibroblasts CCC-ESF-1, CCK-8, 48 hours
Protocol: as §1, §2, §3, §4

[3] = test system: human embryonic lung fibroblast IMR-90; assay: Anti-fibrosis activity test: inhibition of proliferation of human embryonic lung fibroblast IMR-90 (CCK-8); conditions: human embryonic lung fibroblast IMR-90, CCK-8, 48 hours
Protocol: as §1, §2, §3, §4

[4] = test system: human fibrosarcoma cells HT-1080; assay: Anti-fibrosis activity test: inhibition of proliferation of human fibrosarcoma cells HT-1080 (CCK-8); conditions: human fibrosarcoma cells HT-1080, CCK-8, 48 hours
Protocol: as §1, §2, §3, §4

[5] = test system: human lung fibroblasts HFL1; assay: Anti-fibrosis activity test: inhibition of proliferation of human lung fibroblasts HFL1 (CCK-8); conditions: human lung fibroblasts HFL1, CCK-8, 48 hours
Protocol: as §1, §2, §3, §4

[6] = test system: cardiac fibroblast RAT-iCell-C002; assay: Anti-fibrosis activity test: inhibition of proliferation of cardiac fibroblast RAT-iCell-C002 (CCK-8); conditions: Cardiac fibroblast, 48 h, cardiac fibroblast RAT-iCell-C002, CCK-8, 48 hours
Protocol: as §1, §2, §3, §4

[7] = Mesocricetus auratus, BHK-21, 48 h, CCK-8, 48 hours after administration
[8] = CCK-8, 48 hours after administration

Row | Structure (SMILES) | IC50 ([4]; Homo sapiens, HT-1080, 48 h) | IC50 [4] | IC50 ([1]; Homo sapiens, 48 h) | IC50 (BHK-21 cells; [7]) | IC50 ([2]; Fibroblast) | IC50 [3] | IC50 ([5]; Homo sapiens, HFL1, 48 h) | IC50 [6] | IC50 (BHK-21 cells; 48 h, CCK-8) | IC50 [1] | IC50 (BHK-21 cells; [8]) | IC50 [5] | IC50 [2]
1 | O=C1c2c(nc3cc(N4CCNCC4)c(F)cc3c2OCc2cc(C(F)(F)F)cc(C(F)(F)F)c2)-c2cccn21 [Compound 639b, 9-((3,5-bis(trifluoromethyl)benzyl)oxy)-7-fluoro-6-(piperazin-1-yl)-10H-pyrrolizino[1,2-b]quinolin-10-one] | 0.05 to 5 mM |  | 0.05 to 5 mM | 0.05 to 5 mM | 0.05 to 5 mM | 0.05 to 5 mM | 0.05 to 5 mM | 0.05 to 5 mM |  |  |  |  | 
2 | Cc1cc2n(c1)C(=O)c1c-2nc2ccccc2c1O [Compound 801b, 9-hydroxy-2-methyl-0H-pyrrolizino[1,2-b]quinolin-10-one] |  |  |  |  |  |  |  |  | 0.05 to 5 mM |  |  |  | 
3 | O=C1c2c([nH]c3cc(N4CCNCC4)c(F)cc3c2=O)-c2cccn21 [Compound 346a, 7-Fluoro-6-(piperazin-1-yl)-9H-pyrrolizino[1,2-b]quinoline-9,10(4H)-dione] | 0.05 to 5 mM |  | 0.05 to 5 mM | 0.05 to 5 mM | 0.05 to 5 mM | 0.05 to 5 mM | 0.05 to 5 mM | 0.05 to 5 mM |  |  |  |  | 
4 | CC(C)CCOc1c2c(nc3cc(N4CCNCC4)c(F)cc13)-c1cccn1C2=O [Compound 347b, 7-fluoro-9-(isopentyloxy)-6-(piperazin-1-yl)-10H-pyrrolizino[1,2-b]quinolin-10-one] | 0.05 to 5 mM |  | 0.05 to 5 mM | 0.05 to 5 mM | 0.05 to 5 mM | 0.05 to 5 mM | 0.05 to 5 mM | 0.05 to 5 mM |  |  |  |  | 
5 | O=C1c2c(n(Cc3ccccc3Cl)c3cccc(Cl)c3c2=O)-c2cccn21 [Compound 645a, 8-Chloro-4-(2-chlorobenzyl)-9H-pyrrolizino[1,2-b]quinoline-9,10(4H)-dione] | 0.05 to 5 mM |  | 0.05 to 5 mM | 0.05 to 5 mM | < 0.05 mM | 0.05 to 5 mM | 0.05 to 5 mM | 0.05 to 5 mM |  |  |  |  | 
6 | O=C(Cn1c2c(c(=O)c3ccccc31)C(=O)n1cccc1-2)c1ccc(C(F)(F)F)cc1 [Compound 91a, 4-(2-Oxo-2-(4-(trifluoromethyl)phenyl)ethyl)-9H-pyrrolizino[1,2-b]quinoline-9,10(4)-dione] |  | 5 to 20 mM |  |  |  |  |  |  |  | 0.05 to 5 mM |  |  | 
7 | CC(C)CCn1c2c(c(=O)c3cc(F)ccc31)C(=O)n1cccc1-2 [Compound 105a, 7-Fluoro-4-isopentyl-9H-pyrrolizino[1,2-b]quinoline-9,10(4H)-dione] | 0.05 to 5 mM |  | 0.05 to 5 mM | 0.05 to 5 mM | 0.05 to 5 mM | 0.05 to 5 mM | 0.05 to 5 mM | 0.05 to 5 mM |  |  |  |  | 
8 | O=C1c2c(nc3cc(N4CCNCC4)ccc3c2OCc2ccc(F)cc2F)-c2cccn21 [Compound 630b, 9-((2,4-difluorobenzyl)oxy)-6-(piperazin-1-yl)-10H-pyrrolizino[1,2-b]quinolin-10-one] |  |  |  |  |  |  |  |  |  |  | 0.05 to 5 mM | 5 to 20 mM | 
9 | N#Cc1cc2c(OCc3ccc(C(F)(F)F)cc3)c3c(nc2cc1N1CCNCC1)-c1cccn1C3=O [Compound 642b, 10-oxo-6-(piperazin-1-yl)-9-((4-(trifluoromethyl)benzyl)oxy)-10H-pyrrolizino[1,2-b]quinoline-7-carbonitrile] | 0.05 to 5 mM |  | 0.05 to 5 mM | 0.05 to 5 mM | 0.05 to 5 mM | 0.05 to 5 mM | 0.05 to 5 mM | 0.05 to 5 mM |  |  |  |  | 
10 | N#Cc1ccccc1-c1ccc(COc2c3c(nc4cc(N5CCNCC5)c(C#N)cc24)-c2cccn2C3=O)cc1 [Compound 644b, 9-((2′-cyano-[1,1′-biphenyl]-4-yl)methoxy)-10-oxo-6-(piperazin-1-yl)-10H-pyrrolizino[1,2-b]quinoline-7-carbonitrile] | 0.05 to 5 mM |  | 0.05 to 5 mM | 0.05 to 5 mM | 0.05 to 5 mM | 0.05 to 5 mM | 0.05 to 5 mM | 0.05 to 5 mM |  |  |  |  | 
11 | O=C1c2c(n(Cc3ccc(F)cc3F)c3cc(N4CCNCC4)ccc3c2=O)-c2cccn21 [Compound 630a, 4-(2,4-Difluorobenzyl)-6-(piperazin-1-yl)-9H-pyrrolizino[1,2-b]quinoline-9,10(4H)-dione] |  |  |  |  |  |  |  |  |  |  | < 0.05 mM | < 0.05 mM | 
12 | O=C1c2c(n(Cc3cc(C(F)(F)F)cc(C(F)(F)F)c3)c3cc(N4CCNCC4)c(F)cc3c2=O)-c2cccn21 [Compound 639a, 4-(3,5-Bis(trifluoromethyl)benzyl)-7-fluoro-6-(piperazin-1-yl)-9H-pyrrolizino[,2-b]quinoline-9,10(4H)-dione] |  |  |  |  |  |  |  |  |  |  |  |  | < 0.05 mM
13 | N#Cc1ccc2nc3c(c(OCc4ccc(-c5ccccc5C#N)cc4)c2c1)C(=O)n1cccc1-3 [Compound 629b, 9-((2′-cyano-[1,1′-biphenyl]-4-yl)methoxy)-10-oxo-10H-pyrrolizino[,2-b]quinoline-7-carbonitrile] |  |  |  |  |  |  |  |  |  |  | 0.05 to 5 mM |  | 0.05 to 5 mM

More lines, main results first:

Row | IC50 ([4]; Homo sapiens, HT-1080, 48 h) | IC50 [4] | Structure (SMILES) | IC50 ([1]; Homo sapiens, 48 h) | IC50 (BHK-21 cells; [7]) | IC50 ([2]; Fibroblast) | IC50 [3] | IC50 ([5]; Homo sapiens, HFL1, 48 h) | IC50 [6] | IC50 (BHK-21 cells; 48 h, CCK-8) | IC50 [1] | IC50 (BHK-21 cells; [8]) | IC50 [5] | IC50 [2]
14 | 0.05 to 5 mM |  | O=C1c2c(nc3cc(N4CCNCC4)c(F)cc3c2OCc2ccc(Cl)cc2)-c2cccn21 [Compound 632b, 9-((4-chlorobenzyl)oxy)-7-fluoro-6-(piperazin-1-yl)-10H-pyrrolizino[1,2-b]quinolin-10-one] | 0.05 to 5 mM | 0.05 to 5 mM | 0.05 to 5 mM | 0.05 to 5 mM | 0.05 to 5 mM | 0.05 to 5 mM |  |  |  |  | 
15 | 5 to 20 mM |  | N#Cc1cc2c(=O)c3c(n(Cc4ccc(-c5ccccc5)cc4)c2cc1N1CCNCC1)-c1cccn1C3=O [Compound 643a, 4-([1,1′-Biphenyl]-4-ylmethyl)-9,10-dioxo-6-(piperazin-1-yl)-4,10-dihydro-9H-pyrrolizino[1,2-b]quinoline-7-carbonitrile] | 0.05 to 5 mM | < 0.05 mM | 0.05 to 5 mM | 0.05 to 5 mM | 0.05 to 5 mM | 0.05 to 5 mM |  |  |  |  | 
16 | 0.05 to 5 mM |  | O=C1c2c(n(Cc3ccc(Cl)cc3)c3cc(N4CCNCC4)cc(F)c3c2=O)-c2cccn21 [Compound 647a, 4-(4-Chlorobenzyl)-8-fluoro-6-(piperazin-1-yl)-9H-pyrrolizino[1,2-b]quinoline-9,10(4H)-dione] | 0.05 to 5 mM | 0.05 to 5 mM | 0.05 to 5 mM | 0.05 to 5 mM | 0.05 to 5 mM | 0.05 to 5 mM |  |  |  |  | 
17 | 0.05 to 5 mM |  | N#Cc1ccc(Cn2c3c(c(=O)c4cc(C#N)c(N5CCNCC5)cc42)C(=O)n2cccc2-3)cc1 [Compound 641a, 4-(4-Cyanobenzyl)-9,10-dioxo-6-(piperazin-1-yl)-4,10-dihydro-9H-pyrrolizino[1,2-b]quinoline-7-carbonitrile] | 0.05 to 5 mM | 0.05 to 5 mM | 0.05 to 5 mM | 0.05 to 5 mM | 0.05 to 5 mM | 0.05 to 5 mM |  |  |  |  | 
18 | 0.05 to 5 mM |  | O=C1c2c(n(Cc3ccccc3Cl)c3cc(Cl)ccc3c2=O)-c2cccn21 [Compound 510a, 6-Chloro-4-(2-chlorobenzyl)-9H-pyrrolizino[1,2-b]quinoline-9,10(4H)-dione] | 0.05 to 5 mM | < 0.05 mM | 0.05 to 5 mM | 0.05 to 5 mM | 0.05 to 5 mM | 0.05 to 5 mM |  |  |  |  | 
19 | 0.05 to 5 mM |  | O=C1c2c(n(Cc3ccc(F)cc3)c3cc(N4CCNCC4)cc(F)c3c2=O)-c2cccn21 [Compound 646a, 8-Fluoro-4-(4-fluorobenzyl)-6-(piperazin-1-yl)-9H-pyrrolizino[1,2-b]quinoline-9,10(4H)-dione] | 0.05 to 5 mM | 0.05 to 5 mM | 0.05 to 5 mM | 0.05 to 5 mM | 0.05 to 5 mM | 0.05 to 5 mM |  |  |  |  | 
20 | 0.05 to 5 mM |  | CC(C)CCn1c2c(c(=O)c3cc(F)c(N4CCNCC4)cc31)C(=O)n1cccc1-2 [Compound 347a, 7-Fluoro-4-isopentyl-6-(piperazin-1-yl)-9H-pyrrolizino[1,2-b]quinoline-9,10(4H)-dione] | 5 to 20 mM | 0.05 to 5 mM | 0.05 to 5 mM | 0.05 to 5 mM | 0.05 to 5 mM | 0.05 to 5 mM |  |  |  |  | 
21 | 0.05 to 5 mM |  | O=C1c2c(nc3cc(N4CCNCC4)c(F)cc3c2OCc2ccc(F)cc2)-c2cccn21 [Compound 634b, 7-fluoro-9-((4-fluorobenzyl)oxy)-6-(piperazin-1-yl)-10H-pyrrolizino[1,2-b]quinolin-10-one] | 0.05 to 5 mM | 0.05 to 5 mM | 0.05 to 5 mM | 0.05 to 5 mM | 0.05 to 5 mM | 0.05 to 5 mM |  |  |  |  | 
